We go through 1 molecule from patent US7163700B2, “Amorphous drug beads” (Capricorn Pharma, Inc., priority 2001, dated 2007).

SMILES strings stand for the structures.

The nature of this data set: Dissolution test of amorphous Itraconazole drug beads versus crystalline Itraconazole (FIG. 1). It is filed as physicochemical. The conditions noted are these: over the same time period. From the text: Quantities of Itraconazole and Pluronic™ F68 in a ratio of 9 parts Itraconazole to 1 part Pluronic™ F68 were melted separately in an oil bath. Once both components were completely melted, they were combined, emulsified with high shear, and poured onto a cold plate to cool rapidly.

On to `CCC(C)n1ncn(-c2ccc(N3CCN(c4ccc(OCC5COC(Cn6cncn6)(c6ccc(Cl)cc6Cl)O5)cc4)CC3)cc2)c1=O` (stereo not shown) [crystalline Itraconazole, 4-[4-[4-[4-[[2-(2,4-Dichlorophenyl)-2-(1H-1,2,4-triazol-1-ylmethyl)-1,3-dioxolan-4-yl]methoxy]phenyl]-1-piperazinyl]phenyl]-2,4-dihydro-2-(1-methylpropyl)-3H-1,2,4-triazol-3-one], for which the “dissolution rate (percent dissolution versus time)” value was found to be 20%.
